For test [1], the target named is isolated recombinant JAK1 kinase domain (Homo sapiens (Human), UniProt P23458). Briefly: JAK1 enzyme assay (Caliper LabChip, peptide phosphorylation). In kind it is biochemical. The settings on record: isolated recombinant JAK1 kinase domain, 25 μM ATP.
For test [2], the target named is isolated recombinant JAK2 kinase domain (Homo sapiens (Human), UniProt O60674). Put plainly: JAK2 enzyme assay (Caliper LabChip, peptide phosphorylation). In kind it is biochemical. The conditions noted are these: 25 μM ATP.
Sequence of isolated recombinant JAK2 kinase domain (O60674 849-1124): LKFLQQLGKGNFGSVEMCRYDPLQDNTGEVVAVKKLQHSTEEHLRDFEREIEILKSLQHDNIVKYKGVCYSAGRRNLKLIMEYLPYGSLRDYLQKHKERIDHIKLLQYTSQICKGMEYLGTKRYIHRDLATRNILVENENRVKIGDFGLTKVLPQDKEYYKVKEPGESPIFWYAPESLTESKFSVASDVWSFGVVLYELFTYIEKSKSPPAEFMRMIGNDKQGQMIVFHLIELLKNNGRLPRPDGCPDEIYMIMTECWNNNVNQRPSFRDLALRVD
For test [3], the system named is JAK1-dependent STAT6 phosphorylation downstream of IL-13 stimulation in BEAS-2B human bronchial epithelial cells. Briefly: JAK1 pathway assay in BEAS-2B cells (IL-13-pSTAT6, MSD). The conditions noted are these: read-out: IL13-pSTAT6 EC50 (uM)_BEAS-2B. In kind it is cell-based. An outline of the steps: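 Inhibitors were added to TF-1 cells (GM-CSF-starved, serum-free) for 30 min or to BEAS-2B cells (complete medium) for 1 hr at 37° C. MSD detected pSTAT6.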

Each structure is given as a SMILES string.

Sequence of isolated recombinant JAK1 kinase domain (P23458 875-1153): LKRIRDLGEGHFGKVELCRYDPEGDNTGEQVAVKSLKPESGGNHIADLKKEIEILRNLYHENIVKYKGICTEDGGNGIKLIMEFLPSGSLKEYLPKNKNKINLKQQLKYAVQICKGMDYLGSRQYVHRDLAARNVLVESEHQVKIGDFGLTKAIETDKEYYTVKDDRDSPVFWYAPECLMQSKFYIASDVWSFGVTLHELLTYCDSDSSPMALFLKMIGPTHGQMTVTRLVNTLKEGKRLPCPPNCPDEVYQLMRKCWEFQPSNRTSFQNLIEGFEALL

A word on the Ki: it is a dissociation constant, usually derived from enzyme kinetics or from competition with a known ligand. In general, EC50 refers to the concentration that produces a half-maximal response. With `O=C(Nc1cn(CC(=O)N2CCN(CC3CC3)CC2)nc1-c1cc(Cl)ccc1OC(F)F)c1cnn2cccnc12` [Example 374, N-[3-[5-chloro-2-(difluoromethoxy)phenyl]-1-[2-[4-(cyclopropylmethyl)piperazin-1-yl]-2-oxoethyl]-1H-pyrazol-4-yl]pyrazolo[1,5-a]pyrimidine-3-carboxamide], the figures for the Ki in test [1] and in test [2] were 0.45 nM and 0.88 nM, respectively. The concentration giving a half-maximal response (EC50) in test [3] stood at 0.0295 µM.

Regarding `CC1CN(C)CCN1C(=O)Cn1cc(NC(=O)c2cnn3cccnc23)c(-c2cc(Cl)ccc2OC(F)F)n1` (stereo not drawn) [Example 375, N-[3-[5-chloro-2-(difluoromethoxy)phenyl]-1-[2-(2,4-dimethylpiperazin-1-yl)-2-oxoethyl]-1H-pyrazol-4-yl]pyrazolo[1,5-a]pyrimidine-3-carboxamide], the inhibitory constant (Ki) in test [1] was found to be 0.75 nM; in test [2], 1.54 nM. In test [3], the concentration for a half-maximal effect (EC50) was 0.0716 µM.

Regarding `CC1CN(C(=O)Cn2cc(NC(=O)c3cnn4cccnc34)c(-c3cc(Cl)ccc3OC(F)F)n2)CCN1C` (stereo not drawn) [Example 376, N-[3-[5-chloro-2-(difluoromethoxy)phenyl]-1-[2-(3,4-dimethylpiperazin-1-yl)-2-oxoethyl]-1H-pyrazol-4-yl]pyrazolo[1,5-a]pyrimidine-3-carboxamide], the figures for the Ki in test [1] and in test [2] were 0.66 nM and 1.03 nM, respectively. Moreover, the half-maximal effective concentration (EC50) in test [3] came to 0.0325 µM.

Consider `CN1CCN(C(=O)Cn2cc(NC(=O)c3cnn4cccnc34)c(-c3cc(Cl)ccc3OC(F)F)n2)C(C)(C)C1` [Example 377, N-[3-[5-chloro-2-(difluoromethoxy)phenyl]-1-[2-oxo-2-(2,2,4-trimethylpiperazin-1-yl)ethyl]-1H-pyrazol-4-yl]pyrazolo[1,5-a]pyrimidine-3-carboxamide], for which the inhibition constant Ki in test [1] is 0.56 nM; in test [2], 1.3 nM. Besides, the concentration for a half-maximal effect (EC50) in test [3] came to 0.0528 µM.

As for `CN1CCN(C(=O)Cn2cc(NC(=O)c3cnn4cccnc34)c(-c3cc(Cl)ccc3OC(F)F)n2)CC1(C)C` [Example 378, N-[3-[5-chloro-2-(difluoromethoxy)phenyl]-1-[2-oxo-2-(3,3,4-trimethylpiperazin-1-yl)ethyl]-1H-pyrazol-4-yl]pyrazolo[1,5-a]pyrimidine-3-carboxamide], the values for the Ki in test [1] and in test [2] were 0.93 nM and 1.6 nM, respectively. Also, the concentration giving a half-maximal response (EC50) in test [3] worked out at 0.0874 µM.

Consider `CN(C)CCN1CCN(C(=O)Cn2cc(NC(=O)c3cnn4cccnc34)c(-c3cc(Cl)ccc3OC(F)F)n2)CC1` [Example 379, N-[3-[5-chloro-2-(difluoromethoxy)phenyl]-1-(2-[4-[2-(dimethylamino)ethyl]piperazin-1-yl]-2-oxoethyl)-1H-pyrazol-4-yl]pyrazolo[1,5-a]pyrimidine-3-carboxamide], for which the Ki was found to be 0.86 nM in test [1] and 2.33 nM in test [2]. Further, the EC50 in test [3] turned out to be 0.0755 µM.

In the case of `O=C(Nc1cn(CC(=O)N2CCN(Cc3ncco3)CC2)nc1-c1cc(Cl)ccc1OC(F)F)c1cnn2cccnc12` [Example 380, N-[3-[5-chloro-2-(difluoromethoxy)phenyl]-1-[2-[4-(1,3-oxazol-2-ylmethyl)piperazin-1-yl]-2-oxoethyl]-1H-pyrazol-4-yl]pyrazolo[1,5-a]pyrimidine-3-carboxamide], the Ki is 0.3 nM in test [1] and 0.68 nM in test [2]. In addition, the EC50 in test [3] came to 0.0481 µM.

As to `O=C1CCC(CNCCn2cc(NC(=O)c3cnn4cccnc34)c(-c3cc(Cl)ccc3OC(F)F)n2)O1` (stereo not drawn) [Example 381, N-[3-[5-chloro-2-(difluoromethoxy)phenyl]-1-(2-[[(5-oxooxolan-2-yl)methyl]amino]ethyl)-1H-pyrazol-4-yl]pyrazolo[1,5-a]pyrimidine-3-carboxamide], the figures for the inhibitory constant (Ki) in test [1] and in test [2] were 1.07 nM and 0.55 nM, respectively. The EC50 in test [3] worked out at 0.0298 µM.

For the molecule `O=C1CCC(CN2CCN(C(=O)Cn3cc(NC(=O)c4cnn5cccnc45)c(-c4cc(Cl)ccc4OC(F)F)n3)CC2)O1` (stereo not drawn) [Example 382, N-[3-[5-chloro-2-(difluoromethoxy)phenyl]-1-(2-oxo-2-[4-[(5-oxooxolan-2-yl)methyl]piperazin-1-yl]ethyl)-1H-pyrazol-4-yl]pyrazolo[1,5-a]pyrimidine-3-carboxamide], the values for the inhibition constant (Ki) in test [1] and in test [2] were 0.34 nM and 0.75 nM, respectively. Further, the concentration giving a half-maximal response (EC50) in test [3] worked out at 0.0257 µM.

For the molecule `CNC(=O)CN1CCN(C(=O)Cn2cc(NC(=O)c3cnn4cccnc34)c(-c3cc(Cl)ccc3OC(F)F)n2)CC1` [Example 383, N-[3-[5-chloro-2-(difluoromethoxy)phenyl]-1-(2-[4-[(methylcarbamoyl)methyl]piperazin-1-yl]-2-oxoethyl)-1H-pyrazol-4-yl]pyrazolo[1,5-a]pyrimidine-3-carboxamide], the results for the inhibition constant Ki in test [1] and in test [2] were 0.39 nM and 0.66 nM, respectively. The EC50 in test [3] worked out at 0.277 µM.

With `COC(=O)CNCCn1cc(NC(=O)c2cnn3cccnc23)c(-c2cc(Cl)ccc2OC(F)F)n1` [Example 386, methyl 2-[(2-[3-[5-chloro-2-(difluoromethoxy)phenyl]-4-[pyrazolo[1,5-a]pyrimidine-3-amido]-1H-pyrazol-1-yl]ethyl)amino]acetate], the Ki stood at 1.06 nM in test [1] and 0.56 nM in test [2]. Besides, the half-maximal effective concentration (EC50) in test [3] is 0.0297 µM.

As to `COC(=O)[C@@H](N)CCn1cc(NC(=O)c2cnn3cccnc23)c(-c2cc(Cl)ccc2OC(F)F)n1` [Example 387, methyl (2S)-2-amino-4-[3-[5-chloro-2-(difluoromethoxy)phenyl]-4-[pyrazolo[1,5-a]pyrimidine-3-amido]-1H-pyrazol-1-yl]butanoate], the Ki in test [1] was found to be 1.24 nM; in test [2] it was 0.46 nM. Moreover, the EC50 in test [3] stood at 0.0107 µM.

Regarding `CN1CCC(COC(=O)C2CCN(C(=O)Cn3cc(NC(=O)c4cnn5cccnc45)c(-c4cc(Cl)ccc4OC(F)F)n3)CC2)CC1` [Example 388, (1-methylpiperidin-4-yl)methyl 1-(2-[3-[5-chloro-2-(difluoromethoxy)phenyl]-4-[pyrazolo[1,5-a]pyrimidine-3-amido]-1H-pyrazol-1-yl]acetyl)piperidine-4-carboxylate], the Ki came out at 0.51 nM in test [1] and 2.42 nM in test [2]. For the same molecule, in test [3], the EC50 was determined as 0.0241 µM.

Consider `CN1CCC(COC(=O)C2(C)CCN(C(=O)Cn3cc(NC(=O)c4cnn5cccnc45)c(-c4cc(Cl)ccc4OC(F)F)n3)CC2)CC1` [Example 389, (1-methylpiperidin-4-yl)methyl 1-(2-[3-[5-chloro-2-(difluoromethoxy)phenyl]-4-[pyrazolo[1,5-a]pyrimidine-3-amido]-1H-pyrazol-1-yl]acetyl)-4-methylpiperidine-4-carboxylate], for which the Ki was 0.4 nM in test [1] and 2.16 nM in test [2]. The concentration for a half-maximal effect (EC50) in test [3] turned out to be 0.0175 µM.

In the case of `CN(CCn1cc(NC(=O)c2cnn3cccnc23)c(-c2cc(Cl)ccc2OC(F)F)n1)CC1CCC(=O)O1` (stereo not drawn) [Example 390, N-[3-[5-chloro-2-(difluoromethoxy)phenyl]-1-(2-[methyl[(5-oxooxolan-2-yl)methyl]amino]ethyl)-1H-pyrazol-4-yl]pyrazolo[1,5-a]pyrimidine-3-carboxamide], the inhibitory constant (Ki) in test [1] came to 1.28 nM; in test [2] it was 0.84 nM. In addition, the concentration giving a half-maximal response (EC50) in test [3] came to 0.0424 µM.

Take `CCOC(=O)CCN(C)C1CCN(C(=O)Cn2cc(NC(=O)c3cnn4cccnc34)c(-c3cc(Cl)ccc3OC(F)F)n2)CC1` [Example 391, ethyl 3-[[1-(2-[3-[5-chloro-2-(difluoromethoxy)phenyl]-4-[pyrazolo[1,5-a]pyrimidine-3-amido]-1H-pyrazol-1-yl]acetyl)piperidin-4-yl](methyl)amino]propanoate]: the values for the Ki in test [1] and in test [2] were 0.91 nM and 2.49 nM, respectively. The concentration giving a half-maximal response (EC50) in test [3] is 0.0206 µM.

`O=C1CC(N2CCN(C(=O)Cn3cc(NC(=O)c4cnn5cccnc45)c(-c4cc(Cl)ccc4OC(F)F)n3)CC2)CO1` (stereo not drawn) [Example 392, N-[3-[5-chloro-2-(difluoromethoxy)phenyl]-1-[2-oxo-2-[4-(5-oxooxolan-3-yl)piperazin-1-yl]ethyl]-1H-pyrazol-4-yl]pyrazolo[1,5-a]pyrimidine-3-carboxamide]: the inhibition constant Ki in test [1] worked out at 0.4 nM; in test [2] it was 0.77 nM. Moreover, in test [3], the EC50 came to 0.0261 µM.

`O=C(Nc1cn(CC(=O)N2CCC(N3CCOCC3)CC2)nc1-c1cc(Cl)ccc1OC(F)F)c1cnn2cccnc12` [Example 393, N-[3-[5-chloro-2-(difluoromethoxy)phenyl]-1-[2-[4-(morpholin-4-yl)piperidin-1-yl]-2-oxoethyl]-1H-pyrazol-4-yl]pyrazolo[1,5-a]pyrimidine-3-carboxamide]: the results for the Ki in test [1] and in test [2] were 0.38 nM and 0.89 nM, respectively. In addition, the half-maximal effective concentration (EC50) in test [3] turned out to be 0.0115 µM.

As to `O=C(Nc1cn(C/C=C/CN2CCOCC2)nc1-c1cc(Cl)ccc1OC(F)F)c1cnn2cccnc12` [Example 394, N-[3-[5-chloro-2-(difluoromethoxy)phenyl]-1-[(2E)-4-(morpholin-4-yl)but-2-en-1-yl]-1H-pyrazol-4-yl]pyrazolo[1,5-a]pyrimidine-3-carboxamide], the values for the inhibition constant (Ki) in test [1] and in test [2] were 0.87 nM and 0.61 nM, respectively. For the same molecule, the 50% effective concentration (EC50) in test [3] is 0.0311 µM.

Consider `CN1CCN(C(=O)C2CCN(C(=O)Cn3cc(NC(=O)c4cnn5cccnc45)c(-c4cc(Cl)ccc4OC(F)F)n3)CC2)CC1` [Example 398, N-(3-(5-chloro-2-(difluoromethoxy)phenyl)-1-(2-(4-(4-methylpiperazine-1-carbonyl)piperidin-1-yl)-2-oxoethyl)-1H-pyrazol-4-yl)pyrazolo[1,5-a]pyrimidine-3-carboxamide], for which the inhibition constant (Ki) in test [1] was found to be 0.5 nM; in test [2], 1.45 nM. Also, the EC50 in test [3] was 0.0183 µM.
